From ChEMBL document CHEMBL3861999, “Investigation of C-5 alkynyl (alkynyloxy or hydroxymethyl) and/or N-3 propynyl substituted pyrimidine nucleoside analogs as a new class of antimicrobial agents” (Bioorg Med Chem, 2016) come the findings set out here.

Type in all cases: functional
What all share (settings): variant bovis BCG, 144 h, read-out: GI

The subject of test [1] is Mycobacterium tuberculosis. Kind of test: Growth inhibition of Mycobacterium bovis BCG at 200 ug/ml after 6 days by microplate alamar blue assay.
In test [2] the test system is Mycobacterium tuberculosis. Nature of the test: Growth inhibition of Mycobacterium bovis BCG at 1 ug/ml after 6 days by microplate alamar blue assay.
In test [3] the test system is Mycobacterium tuberculosis. Kind of test: Growth inhibition of Mycobacterium bovis BCG at 0.5 ug/ml after 6 days by microplate alamar blue assay. For orientation: Alamar Blue is a resazurin reagent that responds to reducing activity.

`C#CCOc1cn([C@@H]2O[C@H](CO)[C@@H](O)[C@H]2F)c(=O)[nH]c1=O`: in test [1], the inhibition of growth at 200 µg/mL came to 98%.

Regarding `C#CCOc1cn([C@@H]2O[C@H](CO)[C@@H](O)[C@H]2F)c(=O)n(CC#C)c1=O`, the inhibition of growth at 200 µg/mL in test [1] turned out to be 34%.

For `NNC(=O)c1ccncc1` [ISONIAZID], the inhibition of growth at 1 µg/mL in test [2] was found to be 100%.

Regarding `CO[C@H]1/C=C/O[C@@]2(C)Oc3c(C)c(O)c4c(O)c(c(/C=N/N5CCN(C)CC5)c(O)c4c3C2=O)NC(=O)/C(C)=C\C=C\[C@H](C)[C@H](O)[C@@H](C)[C@@H](O)[C@@H](C)[C@H](OC(C)=O)[C@@H]1C` [RIFAMPIN], the inhibition of growth at 0.5 µg/mL in test [3] came to 100%.
